Measured values: US20130281362A1, “ANTIVIRAL AGENT” (priority 2011, published 2013)

Test system: influenza A virus strain A/Aichi/02/68 (H3N2)
Design: species or system non-inbred male white mice
Details: mouse, in vivo, 60 mg/kg

Structure (SMILES): CCOC(=O)c1c(CSc2ccccc2)n(C)c2cc(Br)c(O)c(CN(C)C)c12 [Arbidol 970609]
- Death rate: 10/15
- Increase in MST: 2.6 days
- MST: 9.3 days
- Protection against death (%): 33.3%
